Test results reported in ChEMBL document CHEMBL5034023, “Development of Multifunctional and Orally Active Cyclic Peptide Agonists of Opioid/Neuropeptide FF Receptors that Produce Potent, Long-Lasting, and Peripherally Restricted Antinociception with Diminished Side Effects” (J Med Chem, 2021).
Calls of active or inactive are those of the source. The rule behind the calls is not given here. Bridge positions count the residues as written; N and C are the ends. Square brackets hold non-standard residues; d marks the D form. Peptide text beside a SMILES is read from it. NMeF = CN[C@@H](Cc1ccccc1)C(=O)O; dDap = NC[C@@H](N)C(=O)O

Legend:
[1] = target: Kappa-type opioid receptor (Homo sapiens, UniProt P41145); type: functional, cell-based, HEK293-A
Chain of Kappa-type opioid receptor (P41145 whole entry): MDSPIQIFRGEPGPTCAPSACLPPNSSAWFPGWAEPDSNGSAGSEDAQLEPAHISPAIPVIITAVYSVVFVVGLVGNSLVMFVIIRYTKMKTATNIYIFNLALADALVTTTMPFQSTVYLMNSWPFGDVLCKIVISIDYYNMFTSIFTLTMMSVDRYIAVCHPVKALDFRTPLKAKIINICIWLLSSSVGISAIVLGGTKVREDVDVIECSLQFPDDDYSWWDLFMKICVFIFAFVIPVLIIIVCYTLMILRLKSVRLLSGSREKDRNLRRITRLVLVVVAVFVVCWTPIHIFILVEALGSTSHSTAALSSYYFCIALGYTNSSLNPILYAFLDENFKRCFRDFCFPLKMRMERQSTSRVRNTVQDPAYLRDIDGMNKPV

[2] = target: T1, Delta-type opioid receptor (Homo sapiens, UniProt P41143); assay: Agonist activity at DOR (unknown origin) expressed in HEK293-A cells assessed as inhibition of forskolin-induced cAMP accumulation preincubated for 30 mins in presence of 3-isobutyl-1-methylxanthine followed by forskolin and compound addition by competitive PKA binding assay; type: functional, cell-based
T1 sequence (P41143 whole entry): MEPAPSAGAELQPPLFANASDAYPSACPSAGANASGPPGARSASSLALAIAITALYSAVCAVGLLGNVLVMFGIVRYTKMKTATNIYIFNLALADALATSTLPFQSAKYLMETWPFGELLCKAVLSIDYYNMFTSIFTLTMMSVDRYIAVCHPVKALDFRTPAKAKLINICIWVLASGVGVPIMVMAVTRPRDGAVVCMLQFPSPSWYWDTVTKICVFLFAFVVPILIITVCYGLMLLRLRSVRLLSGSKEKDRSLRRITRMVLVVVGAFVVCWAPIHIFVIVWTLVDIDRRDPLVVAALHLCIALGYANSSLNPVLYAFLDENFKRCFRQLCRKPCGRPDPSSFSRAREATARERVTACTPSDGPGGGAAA

[3] = target: T1, Delta-type opioid receptor; assay: (§1) Agonist activity at DOR (unknown origin) expressed in HEK293-A cells assessed as inhibition of forskolin-induced cAMP accumulation preincubated for 30 mins in presence of 3-isobutyl-1-methylxanthine followed by forskolin and compound addition by competitive PKA binding assay relative to control; type: functional, cell-based; conditions: filed as agonist
[4] = target: T2, Neuropeptide FF receptor 1 (Homo sapiens, UniProt Q9GZQ6); assay: Agonist activity at NPFF1R (unknown origin) expressed in HEK293-A cells assessed as inhibition of forskolin-induced cAMP accumulation preincubated for 30 mins in presence of 3-isobutyl-1-methylxanthine followed by forskolin and compound addition by competitive PKA binding assay; type: functional, cell-based
T2 sequence (Q9GZQ6 whole entry): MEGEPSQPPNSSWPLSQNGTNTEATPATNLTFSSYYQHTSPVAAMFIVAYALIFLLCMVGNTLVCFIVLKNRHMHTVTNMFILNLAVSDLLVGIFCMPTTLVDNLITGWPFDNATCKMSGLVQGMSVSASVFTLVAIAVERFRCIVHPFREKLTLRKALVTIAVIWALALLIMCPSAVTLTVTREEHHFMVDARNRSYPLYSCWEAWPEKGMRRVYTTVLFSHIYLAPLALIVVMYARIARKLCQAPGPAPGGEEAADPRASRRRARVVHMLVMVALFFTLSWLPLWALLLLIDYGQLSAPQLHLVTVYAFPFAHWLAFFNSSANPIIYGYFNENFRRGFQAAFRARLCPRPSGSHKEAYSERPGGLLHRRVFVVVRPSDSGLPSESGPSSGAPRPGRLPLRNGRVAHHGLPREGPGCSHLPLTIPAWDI

[5] = target: T2, Neuropeptide FF receptor 1; assay: as §1, with “NPFF1R” for “DOR”, “accumulation by measuring maximal efficacy” for “accumulation”; type: functional, cell-based; conditions: filed as agonist
[6] = target: T3, Neuropeptide FF receptor 2 (Homo sapiens, UniProt Q9Y5X5); assay: Agonist activity at NPFF2R (unknown origin) expressed in HEK293-A cells assessed as inhibition of forskolin-induced cAMP accumulation preincubated for 30 mins in presence of 3-isobutyl-1-methylxanthine followed by forskolin and compound addition by competitive PKA binding assay; type: functional, cell-based
T3 sequence (Q9Y5X5 whole entry): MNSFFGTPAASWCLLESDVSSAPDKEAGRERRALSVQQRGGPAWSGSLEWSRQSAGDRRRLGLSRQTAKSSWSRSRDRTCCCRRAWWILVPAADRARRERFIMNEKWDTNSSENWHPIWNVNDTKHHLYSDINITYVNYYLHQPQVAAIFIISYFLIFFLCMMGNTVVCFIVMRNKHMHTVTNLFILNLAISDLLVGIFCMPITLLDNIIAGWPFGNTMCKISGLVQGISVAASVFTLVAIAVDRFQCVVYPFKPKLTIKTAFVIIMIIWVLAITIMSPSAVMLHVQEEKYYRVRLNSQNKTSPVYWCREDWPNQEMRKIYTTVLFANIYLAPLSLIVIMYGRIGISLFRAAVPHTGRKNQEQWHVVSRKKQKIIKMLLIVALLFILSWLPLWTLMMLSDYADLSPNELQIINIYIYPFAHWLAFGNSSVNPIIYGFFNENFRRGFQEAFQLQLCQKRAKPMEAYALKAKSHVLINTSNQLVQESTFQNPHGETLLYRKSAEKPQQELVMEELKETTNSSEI

[7] = target: T3, Neuropeptide FF receptor 2; assay: as §1, with “NPFF2R” for “DOR”, “accumulation by measuring maximal efficacy” for “accumulation”; type: functional, cell-based; conditions: filed as agonist
[8] = Metabolic stability in mouse plasma assessed as degradation half life at 0.01 M measured up to 360 mins; type: ADME, cell-free
Mus musculus [9] = assay: Antinociceptive activity against Kunming mouse model of thermal-induced nociception assessed as peripheral analgesia administered subcutaneously by tail-flick test; type: functional; conditions: sc
Mus musculus [10] = assay: Antinociceptive activity against Kunming mouse model of thermal-induced nociception assessed as duration of analgesic effect administered subcutaneously by tail-flick test; type: functional
Mus musculus [11] = assay: Potency index, ratio of test compound ED50 to DN-9 ED50 for antinociceptive activity against Kunming mouse model of thermal-induced nociception assessed as peripheral analgesia administered subcutaneously by tail-flick test; type: functional
Mus musculus [12] = assay: Antinociceptive activity in Kunming mouse assessed as analgesic tolerance administered subcutaneously once daily for 8 days by tail flick test; type: functional, organism-based; conditions: time 8.0 day
Mus musculus [13] = assay: Antinociceptive activity against Kunming mouse model of thermal-induced nociception assessed as maximum possible effect at 90.1 nmol/kg, po measured after 20 min by tail flick test relative to control; type: functional
Mus musculus [14] = assay: Antinociceptive activity against Kunming mouse model of thermal-induced nociception assessed as maximum possible effect at 90.1 nmol/kg, po measured after 30 min by tail flick test relative to control; type: functional; conditions: 0.5 h
Mus musculus [15] = assay: Antinociceptive activity against Kunming mouse model of thermal-induced nociception assessed as maximum possible effect at 90.1 nmol/kg, po measured after 60 min by tail flick test relative to control; type: functional; conditions: 1 h
Mu-type opioid receptor = Mu-type opioid receptor (Homo sapiens, UniProt P35372)
Chain of Mu-type opioid receptor (P35372 whole entry): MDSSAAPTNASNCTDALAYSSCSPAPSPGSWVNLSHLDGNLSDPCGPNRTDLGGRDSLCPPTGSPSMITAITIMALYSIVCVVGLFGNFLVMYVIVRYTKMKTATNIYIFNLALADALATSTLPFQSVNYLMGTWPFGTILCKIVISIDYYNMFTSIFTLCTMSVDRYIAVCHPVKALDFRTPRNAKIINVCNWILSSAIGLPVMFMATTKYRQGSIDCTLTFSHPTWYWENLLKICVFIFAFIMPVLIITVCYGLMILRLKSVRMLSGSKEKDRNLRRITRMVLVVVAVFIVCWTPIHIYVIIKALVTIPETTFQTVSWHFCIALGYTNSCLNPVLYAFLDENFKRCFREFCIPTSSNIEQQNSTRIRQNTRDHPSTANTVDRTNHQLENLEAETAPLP

Question: For `CN1C(=O)CNC(=O)[C@H](NC(=O)[C@@H](N)Cc2ccc(O)cc2)CNC(=O)C[C@@H](C(=O)N2CCC[C@H]2C(=O)N[C@@H](CCC(N)=O)C(=O)N[C@@H](CCCNC(=N)N)C(=O)N[C@@H](Cc2ccccc2)C(N)=O)NC(=O)[C@@H]1Cc1ccccc1` (H-Y[dDap]G[NMeF]DPQRF-NH2; lactam 2-5), which EC50 [1] is on record?
Answer: The EC50 was 136 nM.

Question: And the EC50 [2]?
Answer: The EC50 was 374 nM.

Question: And the Emax [3]?
Answer: Its Emax is 48%.

Question: And the EC50 [4]?
Answer: Its EC50 is 90.1 nM.

Question: And the Emax [5]?
Answer: Its Emax is 47.5%.

Question: And the EC50 ([6]; read-out: EC50)?
Answer: Its EC50 is 349 nM.

Question: And the EC50 ([6]; read-out: pEC50 (converted))?
Answer: Its EC50 is 355 nM.

Question: And the Emax [7]?
Answer: Its Emax is 63.9%.

Question: And the half-life at 10000 µM [8]?
Answer: Its half-life at 10000 µM is 1.09 h.

Question: What about the ED50 (Mus musculus [9]) of the same compound?
Answer: Its ED50 is 0.0135 µmol/kg.

Question: And the Tlast (Mus musculus [10])?
Answer: Its Tlast is 240 min.

Question: And the “Ratio ED50” value (Mus musculus [11])?
Answer: Its value is 16.

Question: What about the Activity (Mus musculus [12]) of the same compound?
Answer: The Activity was “inactive”.

Question: And the MPE (Mus musculus [13])?
Answer: Its MPE is 93.2%.

Question: And the MPE (Mus musculus [14])?
Answer: Its MPE is 97.5%.

Question: And the MPE (Mus musculus [15])?
Answer: Its MPE is 80.8%.

Question: What about the EC50 (Mu-type opioid receptor) of the same compound?
Answer: The EC50 was 238 nM.
